“Also recorded” adds a separate entry of the source.
Experiments:
[1] = target: T1, TLR7 (Mus musculus, UniProt P58681); assay: TNF-α secretion ELISA after TLR7 agonist imiquimod (IMQ) in RAW 264.7 cells; type: cell-based; settings: SK21 to SK82 at 0.5 μM or 2 μM, Imiquimod 1 μg/ml
T1 construct: endogenous in cells; host or cells: RAW 264.7
T1 sequence (P58681 27-1050): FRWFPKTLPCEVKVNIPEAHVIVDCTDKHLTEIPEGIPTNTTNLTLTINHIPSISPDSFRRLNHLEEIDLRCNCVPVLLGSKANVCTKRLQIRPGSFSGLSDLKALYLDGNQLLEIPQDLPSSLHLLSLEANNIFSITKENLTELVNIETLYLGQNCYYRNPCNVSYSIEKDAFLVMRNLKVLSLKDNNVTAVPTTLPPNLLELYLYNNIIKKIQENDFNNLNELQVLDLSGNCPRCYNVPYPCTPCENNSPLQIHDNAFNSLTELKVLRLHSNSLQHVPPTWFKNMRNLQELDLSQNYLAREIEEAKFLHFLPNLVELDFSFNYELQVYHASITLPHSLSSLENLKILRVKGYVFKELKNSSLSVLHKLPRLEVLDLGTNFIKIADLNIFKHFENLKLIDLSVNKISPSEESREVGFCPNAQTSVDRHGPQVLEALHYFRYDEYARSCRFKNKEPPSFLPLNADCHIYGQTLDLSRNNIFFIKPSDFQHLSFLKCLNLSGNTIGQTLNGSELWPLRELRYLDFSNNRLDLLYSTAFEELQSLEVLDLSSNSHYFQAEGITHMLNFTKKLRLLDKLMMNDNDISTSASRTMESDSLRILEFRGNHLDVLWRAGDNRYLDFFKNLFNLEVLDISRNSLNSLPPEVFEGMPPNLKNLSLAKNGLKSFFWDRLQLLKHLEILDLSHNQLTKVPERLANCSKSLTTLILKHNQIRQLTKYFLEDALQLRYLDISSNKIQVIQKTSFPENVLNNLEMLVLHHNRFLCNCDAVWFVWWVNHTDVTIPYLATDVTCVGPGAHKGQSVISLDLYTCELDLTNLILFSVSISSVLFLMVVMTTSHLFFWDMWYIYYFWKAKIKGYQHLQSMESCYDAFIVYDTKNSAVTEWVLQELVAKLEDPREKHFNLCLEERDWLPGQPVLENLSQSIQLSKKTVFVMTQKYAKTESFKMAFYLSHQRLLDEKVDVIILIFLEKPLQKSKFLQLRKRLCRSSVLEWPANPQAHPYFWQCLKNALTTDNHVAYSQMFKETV
Experimental: (§1) In order to determine the inhibitory activities of the test-ligand, RAW 264.7 cells were pretreated with each candidate compound for 1 hour, then treated with Pam3CSK4 (synthetic triacyl lipopeptide; TLR1/2, Invitrogen), FSL-1 (synthetic diacyl lipoprotein, TLR2/6, 100 ng/ml), lipopolysaccharide (LPS, TLR4, Sigma Aldrich), imiquimod (IMQ, TLR7, Invitrogen), and ODN2395 (type C CpG repeat motif DNA oligo(5′-[…]-3), TLR9, Bioneer) ligand for 4 hours, and treated with poly I:C (I:C repeat motif double-stranded RNA, TLR3, Invitrogen) and TL8-506 (TLR8, Invitrogen) showing delayed reactivity for 24 hours. After activation of TLR, the supernatant was diluted in an appropriate ratio so as to measure within the standard dose range, transferred to a pre-coated 96-well assay plate, and then treated with mouse TNF-alpha secretion level in accordance with the manufacturer's instructions using a mouse-TNF-alpha ELISA-kit (Invitrogen).
(§2) In order to plot the concentration-dependent LC50 curves, treatment with the SK series ligands at different concentrations up to 200 μM (the highest concentration that could be treated within the level of 0.5% DMSO) was performed. Then, cell viability and toxicity response upon treatment with ligands were analyzed by MTT as described in Examples 1-3. Cell viability in each plot was normalized from negative control (100%; no treatment) to positive control (highest concentration of test-ligand), and LC50 was determined by non-linear regression (Graph Pad Prism 7.0). In order to plot the concentration-dependent IC50 curves, pre-treatment with the SK series ligands was performed at different concentrations up to 50 μM (twice the initial concentration). Cell responses mediated by TLR7 and TLR9 (levels of TNF-α secretion) were analyzed by ELISA as described in Examples 1-4. The cytokine level in each plot was normalized from negative control (non-treated) to positive control (treatment with ligand), and IC50 was determined by non-linear regression (Graph Pad Prism 7.0).
(§3) In order to select potential inhibitory molecules against TLR3/TLR7/TLR8/TLR9 activation, first, MTT (3-(4,5-dimethylthiazol-2-yl)-2,5-diphenyltetrazolium bromide) cell viability assay (FIG. 7) was performed upon treatment with a set of ligands from SK21 to SK82 at a concentration of 20 μM and the inhibitory activity thereof was evaluated by an ELISA assay to monitor the level of TNF-α secretion in RAW 264.7 cells. The experimental ligands from SK21 to SK82 were administered at 0.5 μM or 2 μM to the RAW 264.7 cells and stimulated with Imiquimod (TLR7, 1 μg/ml) and OND2395 (TLR9, 0.5 μM).

[2] = target: T2, TLR9 (Mus musculus, UniProt Q9EQU3); assay: TNF-α secretion ELISA after TLR9 agonist ODN2395 in RAW 264.7 cells; type: cell-based; settings: SK21 to SK82 at 0.5 μM or 2 μM, ODN2395 0.5 μM
T2 construct: endogenous in cells; host or cells: RAW 264.7
T2 sequence (Q9EQU3 26-1032): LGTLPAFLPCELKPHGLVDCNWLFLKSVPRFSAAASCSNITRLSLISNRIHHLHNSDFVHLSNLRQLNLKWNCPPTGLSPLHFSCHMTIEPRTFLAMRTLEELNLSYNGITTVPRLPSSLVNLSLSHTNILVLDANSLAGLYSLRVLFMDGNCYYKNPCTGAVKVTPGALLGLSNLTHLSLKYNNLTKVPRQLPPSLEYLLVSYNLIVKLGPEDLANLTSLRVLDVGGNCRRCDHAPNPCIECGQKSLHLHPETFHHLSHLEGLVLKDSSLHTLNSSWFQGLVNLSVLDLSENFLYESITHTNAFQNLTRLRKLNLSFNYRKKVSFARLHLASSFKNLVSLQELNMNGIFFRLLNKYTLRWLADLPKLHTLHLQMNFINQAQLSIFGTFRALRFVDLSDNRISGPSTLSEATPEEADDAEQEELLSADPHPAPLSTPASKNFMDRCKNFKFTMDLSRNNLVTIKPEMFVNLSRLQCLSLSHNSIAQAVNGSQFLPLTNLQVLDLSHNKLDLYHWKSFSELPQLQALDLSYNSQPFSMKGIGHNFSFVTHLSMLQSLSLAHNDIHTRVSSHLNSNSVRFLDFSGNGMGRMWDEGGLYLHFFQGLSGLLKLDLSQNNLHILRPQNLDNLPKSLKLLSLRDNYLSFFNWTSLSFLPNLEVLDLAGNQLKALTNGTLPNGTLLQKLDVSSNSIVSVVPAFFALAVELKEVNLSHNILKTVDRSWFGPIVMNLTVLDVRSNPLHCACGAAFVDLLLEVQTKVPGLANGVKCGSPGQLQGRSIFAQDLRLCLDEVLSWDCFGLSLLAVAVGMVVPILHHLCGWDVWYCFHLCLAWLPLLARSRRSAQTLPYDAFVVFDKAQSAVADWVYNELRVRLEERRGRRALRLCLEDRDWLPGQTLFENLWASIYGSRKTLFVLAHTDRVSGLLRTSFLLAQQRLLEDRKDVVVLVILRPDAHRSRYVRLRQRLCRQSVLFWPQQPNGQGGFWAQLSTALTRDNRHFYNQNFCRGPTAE
Experimental: as §1, §2, §3

SMILES | inhibitory activity against TLR7 (level of TNF-α secretion) [1] | inhibitory activity against TLR9 (level of TNF-α secretion) [2]
CNCCCn1c(C)c(C)c2c(N)c3c(nc21)CCCCCC3 [SK75, 2,3-dimethyl-1-(3-(methylamino)propyl)-5,6,7,8,9,10-hexahydro-1H-cycloocta[b]pyrrolo[3,2-e]pyridin-4-amine] | significant inhibitory activity; also recorded: significantly reduced | significant inhibitory activity; also recorded: significantly reduced
Cc1cc2c(N)c3c(nc2n1CCCN(C)C)CCCC3 [SK39, 1-(3-(dimethylamino)propyl)-2-methyl-5,6,7,8-tetrahydro-1H-pyrrolo[2,3-b]quinolin-4-amine] | significant inhibitory activity; also recorded: significantly reduced | significant inhibitory activity; also recorded: significantly reduced
